Experimental data as given in PubChem BioAssay AID248 (DTP/NCI, 2004).
Where “and” joins values, the source holds several entries; their conditions need not be identical. Identical values can stand only once. Inconclusive results and toxic doses are left out.

System: L1210 leukemia ip in BDF1 mice, survival T/C
Test: NCI In Vivo Anticancer Drug Screen. Data for tumor model L1210 Leukemia (intraperitoneal) in B6D2F1 (BDF1) mice
Conditions: endpoint: mean survival time, higher = longer survival
Outline: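 Transplantable tumor model; survival measured in treated vs vehicle control mice. Value = treated/control.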

[1] = dose: 100.0 mg/kg/injection, schedule: Q01DX001 (ip), vehicle: saline with Tween-80
[2] = dose: 200.0 mg/kg/injection, schedule: Q01DX001 (ip), vehicle: saline with Tween-80
[3] = dose: 400.0 mg/kg/injection, schedule: Q01DX001 (ip), vehicle: saline with Tween-80
[4] = dose: 6.25 mg/kg/injection, schedule: Q04DX003 (ip), vehicle: saline
[5] = dose: 12.5 mg/kg/injection, schedule: Q04DX003 (ip), vehicle: saline
[6] = dose: 25.0 mg/kg/injection, schedule: Q04DX003 (ip), vehicle: saline
[7] = dose: 100.0 mg/kg/injection, schedule: Q04DX002 (ip), vehicle: Klucel (hydroxypropylcellulose) (HPC)
[8] = dose: 200.0 mg/kg/injection, schedule: Q04DX002 (ip), vehicle: Klucel (hydroxypropylcellulose) (HPC)
[9] = dose: 400.0 mg/kg/injection, schedule: Q04DX002 (ip), vehicle: Klucel (hydroxypropylcellulose) (HPC)
[10] = dose: 100.0 mg/kg/injection, schedule: Q01DX001 (ip), vehicle: saline
[11] = dose: 200.0 mg/kg/injection, schedule: Q01DX001 (ip), vehicle: saline
[12] = dose: 400.0 mg/kg/injection, schedule: Q01DX001 (ip), vehicle: saline
[13] = dose: 100.0 mg/kg/injection, schedule: Q01DX009 (ip), vehicle: saline with Tween-80
[14] = dose: 200.0 mg/kg/injection, schedule: Q01DX009 (ip), vehicle: saline with Tween-80
[15] = dose: 100.0 mg/kg/injection, schedule: Q04DX003 (ip), vehicle: saline
[16] = dose: 200.0 mg/kg/injection, schedule: Q04DX003 (ip), vehicle: saline
[17] = dose: 400.0 mg/kg/injection, schedule: Q04DX003 (ip), vehicle: saline

## C[N+](C)(C)c1ncnc2c1ncn2C1CCCO1 (stereo not given)
dose: 50.0 mg/kg/injection, schedule: Q01DX Z (ip), vehicle: methylcellulose (MC)
  T/C: 92 % of control
dose: 100.0 mg/kg/injection, schedule: Q01DX Z (ip), vehicle: methylcellulose (MC)
  T/C: 94 % of control

## CC(C)C1(C(C)C)NC(=O)NC1=O
dose: 100.0 mg/kg/injection, schedule: Q01DX001 (ip), vehicle: other
  T/C: 98 % of control
dose: 100.0 mg/kg/injection, schedule: Q01DX009 (ip), vehicle: other
  T/C: 101 % of control
dose: 100.0 mg/kg/injection, schedule: Q04DX003 (ip), vehicle: other
  T/C: 102 % of control
dose: 200.0 mg/kg/injection, schedule: Q01DX001 (ip), vehicle: other
  T/C: 98 % of control
dose: 200.0 mg/kg/injection, schedule: Q01DX009 (ip), vehicle: other
  T/C: 106 % of control
dose: 200.0 mg/kg/injection, schedule: Q04DX003 (ip), vehicle: other
  T/C: 98 % of control
dose: 400.0 mg/kg/injection, schedule: Q01DX001 (ip), vehicle: other
  T/C: 106 % of control
dose: 400.0 mg/kg/injection, schedule: Q01DX009 (ip), vehicle: other
  T/C: 107 % of control
dose: 400.0 mg/kg/injection, schedule: Q04DX003 (ip), vehicle: other
  T/C: 100 % of control

## O=C(Nc1ccc2c(c1)C(=O)c1ccccc1-2)c1ccccc1
[1]
  T/C: 88 % of control
[2]
  T/C: 88 % of control
[3]
  T/C: 88 % of control

## CS(=O)(=O)OCC(=O)NCC(O)CNC(=O)COS(C)(=O)=O
dose: 75.0 mg/kg/injection, schedule: Q01DX015 (ip), vehicle: saline
  T/C: 151 % of control
dose: 80.0 mg/kg/injection, schedule: Q01DX009 (ip), vehicle: saline
  T/C: 153 % of control
dose: 120.0 mg/kg/injection, schedule: Q01DX009 (ip), vehicle: saline
  T/C: 180 % of control
dose: 150.0 mg/kg/injection, schedule: Q01DX015 (ip), vehicle: saline
  T/C: 164 % of control
dose: 180.0 mg/kg/injection, schedule: Q01DX009 (ip), vehicle: saline
  T/C: 156 % of control and 164 % of control

## c1ccc(C2CN3CCSC3=N2)cc1 (stereo not given)
dose: 0.78 mg/kg/injection, schedule: Q04DX003 (ip), vehicle: saline
  T/C: 102 % of control
dose: 1.56 mg/kg/injection, schedule: Q01DX009 (ip), vehicle: saline
  T/C: 97 % of control
dose: 1.56 mg/kg/injection, schedule: Q04DX003 (ip), vehicle: saline
  T/C: 100 % of control
dose: 3.12 mg/kg/injection, schedule: Q01DX009 (ip), vehicle: saline
  T/C: 100 % of control
dose: 3.12 mg/kg/injection, schedule: Q04DX003 (ip), vehicle: saline
  T/C: 98 % of control
dose: 6.25 mg/kg/injection, schedule: Q01DX009 (ip), vehicle: saline
  T/C: 102 % of control
[4]
  T/C: 104 % of control
dose: 12.5 mg/kg/injection, schedule: Q01DX009 (ip), vehicle: saline
  T/C: 94 % of control
[5]
  T/C: 107 % of control
dose: 25.0 mg/kg/injection, schedule: Q01DX009 (ip), vehicle: saline
  T/C: 105 % of control
[6]
  T/C: 114 % of control

## O=C1CN(C2OC(CO)C(O)C2O)C(=O)NC1=O (stereo not given)
dose: 132.0 mg/kg/injection, schedule: Q01DX Z (ip), vehicle: carboxymethylcellulose (CMC)
  T/C: 107 % of control
dose: 200.0 mg/kg/injection, schedule: Q01DX Z (ip), vehicle: carboxymethylcellulose (CMC)
  T/C: 110 % of control
dose: 299.0 mg/kg/injection, schedule: Q01DX Z (ip), vehicle: carboxymethylcellulose (CMC)
  T/C: 124 % of control
dose: 449.0 mg/kg/injection, schedule: Q01DX Z (ip), vehicle: carboxymethylcellulose (CMC)
  T/C: 107 % of control

## COc1cccc2c1CCC1=C2CCC2CC(=O)CCC12C (stereo not given)
dose: 100.0 mg/kg/injection, schedule: Q01DX001 (sc), vehicle: steriod suspending solution
  T/C: 98 % of control
dose: 200.0 mg/kg/injection, schedule: Q01DX001 (sc), vehicle: steriod suspending solution
  T/C: 100 % of control
dose: 400.0 mg/kg/injection, schedule: Q01DX001 (sc), vehicle: steriod suspending solution
  T/C: 100 % of control

## O=C1OCC/C1=C/CCC/C=C1\CCOC1=O
dose: 100.0 mg/kg/injection, schedule: Q01DX009 (ip), vehicle: Klucel (hydroxypropylcellulose) (HPC)
  T/C: 101 % of control
dose: 100.0 mg/kg/injection, schedule: Q04DX003 (ip), vehicle: Klucel (hydroxypropylcellulose) (HPC)
  T/C: 100 % of control
dose: 200.0 mg/kg/injection, schedule: Q01DX009 (ip), vehicle: Klucel (hydroxypropylcellulose) (HPC)
  T/C: 102 % of control
dose: 200.0 mg/kg/injection, schedule: Q04DX003 (ip), vehicle: Klucel (hydroxypropylcellulose) (HPC)
  T/C: 94 % of control
dose: 400.0 mg/kg/injection, schedule: Q01DX009 (ip), vehicle: Klucel (hydroxypropylcellulose) (HPC)
  T/C: 88 % of control
dose: 400.0 mg/kg/injection, schedule: Q04DX003 (ip), vehicle: Klucel (hydroxypropylcellulose) (HPC)
  T/C: 92 % of control

## Cc1ccnc(NC(=O)Nc2ccc(C)cc2[N+](=O)[O-])c1
[7]
  T/C: 99 % of control
[8]
  T/C: 105 % of control
[9]
  T/C: 115 % of control

## OCCCN=Cc1cc(Cl)cc(Cl)c1O
[10]
  T/C: 98 % of control
[11]
  T/C: 95 % of control
[12]
  T/C: 93 % of control

## S=c1[nH]c2[nH]cnc(=S)c2[nH]1
[10]
  T/C: 97 % of control
[11]
  T/C: 97 % of control

## CCCCCCCCCCNC(=O)C[n+]1cccc(C(=O)N(CC)CC)c1
[4]
  T/C: 94 % of control
[5]
  T/C: 96 % of control
[6]
  T/C: 93 % of control

## C/C=C/C=C/COC(=O)CCCCCCCCC
dose: 100.0 mg/kg/injection, schedule: Q04DX002 (ip), vehicle: saline
  T/C: 100 % of control
dose: 200.0 mg/kg/injection, schedule: Q04DX002 (ip), vehicle: saline
  T/C: 121 % of control
dose: 400.0 mg/kg/injection, schedule: Q04DX002 (ip), vehicle: saline
  T/C: 108 % of control

## Nc1nc(-c2ccc([N+](=O)[O-])cc2)cc(=O)[nH]1
[1]
  T/C: 98 % of control
[2]
  T/C: 93 % of control
[3]
  T/C: 92 % of control

## CC(C)OC(=O)Nc1cccc([N+](=O)[O-])c1
[7]
  T/C: 105 % of control
[8]
  T/C: 91 % of control
[9]
  T/C: 97 % of control

## COc1cc(OC)c(NC(=S)Nc2ccc([N+](=O)[O-])cc2)cc1Cl
dose: 50.0 mg/kg/injection, schedule: Q01DX009 (ip), vehicle: saline with Tween-80
  T/C: 92 % of control
[13]
  T/C: 88 % of control
[14]
  T/C: 90 % of control

## O=C1NC2(c3ccccc3)NC(=O)NC2(c2ccccc2)N1 (stereo not given)
[10]
  T/C: 97 % of control
dose: 100.0 mg/kg/injection, schedule: Q01DX009 (ip), vehicle: saline
  T/C: 91 % of control
[15]
  T/C: 102 % of control
[11]
  T/C: 92 % of control
dose: 200.0 mg/kg/injection, schedule: Q01DX009 (ip), vehicle: saline
  T/C: 97 % of control
[16]
  T/C: 95 % of control
[12]
  T/C: 100 % of control
dose: 400.0 mg/kg/injection, schedule: Q01DX009 (ip), vehicle: saline
  T/C: 102 % of control
[17]
  T/C: 102 % of control

## CC1(C)OC(=O)C(=Cc2c(Cl)cccc2Cl)C(=O)O1
[10]
  T/C: 98 % of control
[13]
  T/C: 104 % of control
[15]
  T/C: 99 % of control
[11]
  T/C: 95 % of control
[14]
  T/C: 92 % of control
[16]
  T/C: 94 % of control
[12]
  T/C: 96 % of control
[17]
  T/C: 97 % of control

## C(=P(c1ccccc1)(c1ccccc1)c1ccccc1)[P+](c1ccccc1)(c1ccccc1)c1ccccc1.[Cl][Fe]([Cl])([Cl])[Br]
dose: 0.39 mg/kg/injection, schedule: Q01DX009 (ip), vehicle: Klucel (hydroxypropylcellulose) (HPC)
  T/C: 119 % of control
dose: 0.78 mg/kg/injection, schedule: Q01DX009 (ip), vehicle: Klucel (hydroxypropylcellulose) (HPC)
  T/C: 112 % of control
dose: 1.56 mg/kg/injection, schedule: Q01DX009 (ip), vehicle: Klucel (hydroxypropylcellulose) (HPC)
  T/C: 97 % of control and 102 % of control

## COc1cc([N+](=O)[O-])ccc1NC(=O)Nc1ccc(S(N)(=O)=O)cc1
[1]
  T/C: 98 % of control
[13]
  T/C: 103 % of control and 107 % of control
dose: 100.0 mg/kg/injection, schedule: Q04DX002 (ip), vehicle: saline with Tween-80
  T/C: 100 % of control and 102 % of control
[2]
  T/C: 90 % of control
[14]
  T/C: 92 % of control and 103 % of control
dose: 200.0 mg/kg/injection, schedule: Q04DX002 (ip), vehicle: saline with Tween-80
  T/C: 99 % of control and 86 % of control
[3]
  T/C: 91 % of control
dose: 400.0 mg/kg/injection, schedule: Q01DX009 (ip), vehicle: saline with Tween-80
  T/C: 94 % of control and 96 % of control
dose: 400.0 mg/kg/injection, schedule: Q04DX002 (ip), vehicle: saline with Tween-80
  T/C: 94 % of control
